Measured values: paper PMC7729398, “Unravelling the intricate cooperativity of subunit gating in P2X2 ion channels” (Scientific Reports, 2020)
Substitutions are numbered along the chain they refer to.

Legend:
P2X2 receptor = biological target: T1, P2X2 receptor (Rattus norvegicus, UniProt P49653); assay: whole-cell and single-channel (cell-attached) patch-clamp, fast ATP jumps, global kinetic fit; type: cell-based
T1 construct: gene P2rx2; wild type rat P2X2 in HEK293 (Flp-In T-REx 293) cells
T1 sequence (P49653 1-472): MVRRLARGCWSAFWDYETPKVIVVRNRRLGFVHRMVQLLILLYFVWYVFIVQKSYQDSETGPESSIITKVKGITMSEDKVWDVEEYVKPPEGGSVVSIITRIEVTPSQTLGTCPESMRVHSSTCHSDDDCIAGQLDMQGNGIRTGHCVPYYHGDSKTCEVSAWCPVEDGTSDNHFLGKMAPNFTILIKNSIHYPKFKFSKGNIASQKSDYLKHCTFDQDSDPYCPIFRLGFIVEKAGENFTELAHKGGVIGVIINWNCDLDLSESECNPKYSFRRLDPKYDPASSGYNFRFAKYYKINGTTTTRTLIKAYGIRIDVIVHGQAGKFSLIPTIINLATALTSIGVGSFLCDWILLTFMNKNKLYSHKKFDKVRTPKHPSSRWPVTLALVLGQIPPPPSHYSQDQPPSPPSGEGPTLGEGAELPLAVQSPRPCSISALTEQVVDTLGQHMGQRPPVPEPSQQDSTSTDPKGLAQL

P2X2 receptor H319K = biological target: T2, P2X2 receptor H319K (Rattus norvegicus, UniProt P49653, H319K); assay: as above; type: cell-based
T2 construct: gene P2rx2; rat P2X2 H319K in HEK293 (Flp-In T-REx 293) cells
T2 sequence (P49653 1-472 H319K): T1 sequence (P49653 1-472) with H319K

With `Nc1ncnc2c1ncn2[C@@H]1O[C@H](COP(=O)(O)OP(=O)(O)OP(=O)(O)O)[C@@H](O)[C@H]1O` [ATP] the EC50 (P2X2 receptor) was 1.2 µM and the EC50 (P2X2 receptor H319K) was ~ 30 nM.
